Data taken from PMC8038501, “Bioactivity-Guided Isolation of Phytochemicals from Vaccinium dunalianum Wight and Their Antioxidant and Enzyme Inhibitory Activities” (Molecules, 2021).
Marks after values point to notes of the source that are not given here.

Tests used:
[1] = cited from earlier work
[2] = target: T1, porcine pancreatic lipase (Sus scrofa, UniProt P00591); assay: pancreatic lipase inhibitory assay (p-nitrophenyl laurate substrate); assay type: biochemical; details: mean ± SD, three replicates; read-out: Enzyme Inhibition IC50 Pancreatic Lipase (converted)
T1 construct: purchased Sigma-Aldrich (Shanghai, China)
T1 sequence (P00591 1-450): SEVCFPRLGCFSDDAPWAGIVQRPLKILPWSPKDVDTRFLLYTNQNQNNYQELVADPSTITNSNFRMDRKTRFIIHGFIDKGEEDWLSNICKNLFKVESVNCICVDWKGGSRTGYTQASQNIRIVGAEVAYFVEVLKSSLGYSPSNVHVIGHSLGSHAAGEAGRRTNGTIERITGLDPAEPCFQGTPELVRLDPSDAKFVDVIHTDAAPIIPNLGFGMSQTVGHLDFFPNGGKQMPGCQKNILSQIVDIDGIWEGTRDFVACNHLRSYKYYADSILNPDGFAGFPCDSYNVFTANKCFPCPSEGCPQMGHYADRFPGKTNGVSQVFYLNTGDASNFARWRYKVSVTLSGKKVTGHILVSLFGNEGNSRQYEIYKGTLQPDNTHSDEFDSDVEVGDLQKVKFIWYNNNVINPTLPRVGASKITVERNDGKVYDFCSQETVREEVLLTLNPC
Method: The pancreatic lipase inhibitory assay was conducted as previously described with some modifications. First, the porcine pancreatic lipase solution was centrifuged to collect the supernatant enzyme at 4000 g for 5 min. The substrate solution was prepared with p-nitrophenyl laurate dissolved in 5 mM sodium acetate (1:100 m/v) and Triton X-100 (1:100 v/v). The substrate solution was placed in boiling water for 2 min to fully dissolve, and then cooled down to room temperature for the enzymatic assay. The sample was dissolved in DMSO (<5% in the final reaction reagents) and diluted with 100 mM Tris-buffer (pH 8.2). Samples of 50, 100, 200, 400, 600, and 800 µg/mL were prepared. Orlistat was used as a positive control. In the enzymatic assay, the test samples (100 µL) were mixed with Tris buffer (400 µL), substrate solution (350 µL), and pancreatic lipase (150 µL). The mixture was then incubated at 37 °C for 2 h and centrifugated at 4000 g for 3 min. The absorbance of the reaction mixture was measured at 400 nm by using a SpectraMax M5 microplate reader. The percent inhibition of pancreatic lipase activity was calculated by Equation (1).

[3] = DPPH free-radical scavenging assay; details: for Antioxidant Activity DPPH: mean ± SD, three replicates
Method: The DPPH free radical scavenging activity was carried out by the method previously described. Briefly, 2 mL of DPPH solution (0.1 mmol/L) was mixed with 0.5 mL of sample solutions or Trolox solution (100 μg/mL in methanol). Then, the mixture was incubated for 30 min in the dark at room temperature. Absorbance of the mixture was measured at 517 nm using a SpectraMax M5 microplate reader. DPPH radical scavenging activity of each extract was expressed as nmol Trolox equivalent (TE) per mg of extract (nmol TE/mg extract).

α-glucosidase = α-glucosidase (Saccharomyces cerevisiae, UniProt P53341); assay: α-glucosidase inhibitory assay (PNPG substrate); assay type: biochemical
Method: The α-glucosidase inhibitory assay was performed as previously described with slight modifications. A 50 µL sample (20, 50, 100, 200, 400, 600 µg/mL) solution was added to the mixture of the α-glucosidase solution, phosphate buffer (100 µL, pH 6.8), and 50 µL of 10 mM PNPG in a 96-well microplate. Subsequently, the reaction mixture was incubated for 15 min at 37 °C. Then, sodium carbonate (50 µL, 0.2 M) was added to terminate the reaction. A blank was prepared for each sample without enzyme solution to correct the background absorbance (control). The absorbance (A) of the reaction mixture was measured at 405 nm by using a SpectraMax M5 microplate reader (Molecular Devices, Sunnyvale, CA, USA). The inhibitory percentage was determined as follows:Inhibition (%) = [(Acontrol − Asample)/Acontrol] × 100(1)

[4] = ABTS radical scavenging assay; details: for Antioxidant Activity ABTS: mean ± SD, three replicates
Method: The ABTS assay was performed according to the procedure described earlier. Briefly, 7 mM ABTS was added to 2.5 mM […] and the mixture was allowed to stand in the dark at room temperature for 16 h to obtain the ABTS radical solution. The ABTS solution was diluted with methanol with an absorbance of 0.70 ± 0.02 at 734 nm. After adding the 25 μL extract (100 μg/mL in methanol) to 200 μL ABTS solution, the absorbance was measured after 6 min at 734 nm by using a SpectraMax M5 microplate reader. Results were expressed as nmol Trolox equivalent (TE) per mg of extract (nmol TE/mg extract).

[5] = Ferric reducing/antioxidant power (FRAP) assay; details: for Antioxidant Activity FRAP: mean ± SD, three replicates
Method: The FRAP assay was conducted according to the procedure reported with slight modifications. The FRAP reagent was freshly prepared with 300 mM acetate buffer (pH 3.6), 10 mM TPTZ (2,4,6-tripyridyl-s-triazine), and 20 mM FeCl3-6H2O (10:1:1, v/v)]. A 0.5 mL of each sample (100 μg/mL) was mixed with 4.5 mL freshly prepared FRAP reagent. Then, the reaction mixture was incubated at 37 °C in the dark for 10 min. The absorbance of the mixture was recorded at 593 nm against a blank that was prepared using distilled water. Trolox was used as a control. The FRAP values were expressed as nmol Trolox equivalent (TE) per mg of extract (nmol TE/mg extract).

ɑ-glucosidase = test system: ɑ-glucosidase; parameters: method as in PMID 28832228; details: cited from earlier work

α-glucosidase, sequence (P53341 whole entry): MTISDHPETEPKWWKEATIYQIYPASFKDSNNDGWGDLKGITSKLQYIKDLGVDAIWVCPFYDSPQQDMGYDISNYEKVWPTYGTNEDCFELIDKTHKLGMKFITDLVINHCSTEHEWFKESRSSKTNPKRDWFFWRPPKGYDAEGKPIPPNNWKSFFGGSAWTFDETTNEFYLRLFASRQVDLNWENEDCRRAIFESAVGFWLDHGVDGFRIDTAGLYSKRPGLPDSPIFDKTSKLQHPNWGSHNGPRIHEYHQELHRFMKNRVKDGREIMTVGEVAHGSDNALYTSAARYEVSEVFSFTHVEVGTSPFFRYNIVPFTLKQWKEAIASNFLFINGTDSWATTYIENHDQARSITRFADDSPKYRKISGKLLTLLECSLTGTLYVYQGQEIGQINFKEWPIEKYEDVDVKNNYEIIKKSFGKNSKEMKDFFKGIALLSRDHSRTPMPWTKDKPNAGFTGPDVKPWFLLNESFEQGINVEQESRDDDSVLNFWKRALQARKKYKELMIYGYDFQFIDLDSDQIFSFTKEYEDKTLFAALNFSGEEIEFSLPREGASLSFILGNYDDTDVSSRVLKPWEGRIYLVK

Q: For `O=c1c(OC2O[C@H](CO)[C@@H](O)[C@@H]2O)c(-c2ccc(O)c(O)c2)oc2cc(O)cc(O)c12` (stereo in doubt) [Compound 5, Quercetin-3-O-arabinofuranoside], which “effect on antioxidant activity (reported)” value (“effect” for short) [1] is on record?
A: positive effect on antioxidant activity

Q: What about the IC50 [2] of the same molecule?
A: 759 µM

Q: What about the “Antioxidant Activity DPPH” value [3] of the same molecule?
A: 0.81 ± 0.17 ^h nmol Trolox equivalent/mg extract

Q: And the “α-glucosidase inhibition (in words)” value (α-glucosidase)?
A: relatively weak inhibitory activity

Q: For `OC[C@H]1O[C@@H](Oc2ccc(O)cc2)[C@H](O)[C@@H](O)[C@@H]1O` [Compound 1, Arbutin], which “Antioxidant Activity ABTS” value [4] is on record?
A: 8.38 ± 3.74 ^efg nmol Trolox equivalent/mg extract

Q: And the IC50 [2]?
A: 1290 µM

Q: And the “Antioxidant Activity DPPH” value [3]?
A: 0.45 ± 0.02 ^e nmol Trolox equivalent/mg extract

Q: And the “Antioxidant Activity FRAP” value [5]?
A: 0.76 ± 0.01 ^d nmol Trolox equivalent/mg extract

Q: And the “α-glucosidase inhibition (in words)” value (α-glucosidase)?
A: relatively weak inhibitory activity

Q: Which results are given for `O=C(/C=C/c1ccc(O)c(O)c1)OC[C@H]1O[C@@H](O)[C@H](O)[C@@H](O)[C@@H]1O` [Compound 2, 6-O-E-Caffeoyl-D-glucopyranose]?
A: Antioxidant Activity ABTS [4]: 15.93 ± 1.65 ^ij nmol Trolox equivalent/mg extract; IC50 [2]: 303 µM; Antioxidant Activity DPPH [3]: 1.05 ± 0.11 ^h nmol Trolox equivalent/mg extract; Antioxidant Activity FRAP [5]: 0.84 ± 0.01 ^e,f nmol Trolox equivalent/mg extract

Q: Which “effect” value [1] does the source give for `O=C(O)/C=C/c1ccc(O)c(O)c1` [Compound 3, Caffeic acid] here?
A: positive effect on antioxidant activity

Q: What about the “Antioxidant Activity ABTS” value [4] of the same molecule?
A: 3.86 ± 0.48 ^b nmol Trolox equivalent/mg extract

Q: And the IC50 [2]?
A: 1310 µM

Q: And the “Antioxidant Activity DPPH” value [3]?
A: 0.39 ± 0.05 ^de nmol Trolox equivalent/mg extract

Q: What about the “Antioxidant Activity FRAP” value [5] of the same molecule?
A: 0.85 ± 0.01 ^ef nmol Trolox equivalent/mg extract

Q: Which “Antioxidant Activity ABTS” value [4] does the source give for `COC(=O)/C=C/c1ccc(O)c(O)c1` [Compound 4, Caffeic acid methyl ester] here?
A: 3.10 ± 1.07 ^b nmol Trolox equivalent/mg extract

Q: What about the IC50 [2] of the same molecule?
A: 1380 µM

Q: What about the “Antioxidant Activity DPPH” value [3] of the same molecule?
A: 0.37 ± 0.01^d nmol Trolox equivalent/mg extract

Q: What about the “ɑ-glucosidase inhibitory activities (reported)” value (ɑ-glucosidase) of the same molecule?
A: good ɑ-glucosidase inhibitory activities

Q: And the “Antioxidant Activity FRAP” value [5]?
A: 0.82 ± 0.01 ^e nmol Trolox equivalent/mg extract

Q: With `CCOC(=O)/C=C/c1ccc(O)c(O)c1` [Compound 6, Caffeic acid ethyl ester] as the molecule, how does the “Antioxidant Activity ABTS” value [4] read?
A: 4.16 ± 0.25 ^b nmol Trolox equivalent/mg extract

Q: What about the IC50 [2] of the same molecule?
A: 1240 µM

Q: What about the “Antioxidant Activity DPPH” value [3] of the same molecule?
A: 0.42 ± 0.03 ^e nmol Trolox equivalent/mg extract

Q: And the “ɑ-glucosidase inhibitory activities (reported)” value (ɑ-glucosidase)?
A: good ɑ-glucosidase inhibitory activities

Q: And the “Antioxidant Activity FRAP” value [5]?
A: 0.76 ± 0.01 ^d nmol Trolox equivalent/mg extract

Q: What about the “α-glucosidase inhibition (in words)” value (α-glucosidase) of the same molecule?
A: relatively weak inhibitory activity

Q: With `O=C(/C=C/c1ccc(O)c(O)c1)OC[C@H]1O[C@@H](Oc2ccc(O)cc2)[C@H](O)[C@@H](O)[C@@H]1O` [Compound 7, 6′-O-Caffeoylarbutin] as the molecule, how does the “Antioxidant Activity ABTS” value [4] read?
A: 16.96 ± 0.95 ^j nmol Trolox equivalent/mg extract

Q: And the ABTS ([4]; unit in section 2.5)?
A: 16.96 ± 0.95 nmol TE/g extract

Q: And the IC50 [2]?
A: 225 µM

Q: What about the “Antioxidant Activity DPPH” value [3] of the same molecule?
A: 1.21 ± 0.43 ^c nmol Trolox equivalent/mg extract

Q: And the DPPH ([3]; unit in section 2.5)?
A: 1.21 ± 0.43 nmol TE/g extract

Q: What about the “Antioxidant Activity FRAP” value [5] of the same molecule?
A: 0.87 ± 0.01 ^f nmol Trolox equivalent/mg extract

Q: And the FRAP ([5]; unit in section 2.5)?
A: 0.87 ± 0.01 nmol TE/g extract

Q: Which “Antioxidant Activity ABTS” value [4] does the source give for `O=C(/C=C/c1ccc(O)cc1)OC[C@H]1O[C@@H](Oc2ccc(O)cc2)[C@H](O)[C@@H](O)[C@@H]1O` [Compound 8, Robustaside A] here?
A: 4.71 ± 0.23 ^c nmol Trolox equivalent/mg extract

Q: What about the IC50 [2] of the same molecule?
A: 741 µM

Q: What about the “Antioxidant Activity DPPH” value [3] of the same molecule?
A: 0.41 ± 0.06 ^e nmol Trolox equivalent/mg extract

Q: And the “Antioxidant Activity FRAP” value [5]?
A: 0.49 ± 0.01 ^b nmol Trolox equivalent/mg extract

Q: What about the “α-glucosidase inhibition (in words)” value (α-glucosidase) of the same molecule?
A: relatively weak inhibitory activity

Q: For `O=c1c(O[C@@H]2O[C@H](CO)[C@@H](O)[C@H](O)[C@H]2O)c(-c2ccc(O)cc2)oc2cc(O)cc(O)c12` [Compound 9, Kaempferol-3-O-β-D-glucopyranoside], which “effect” value [1] is on record?
A: positive effect on antioxidant activity

Q: And the “Antioxidant Activity ABTS” value [4]?
A: 6.38 ± 0.34 ^e nmol Trolox equivalent/mg extract

Q: And the IC50 [2]?
A: 778 µM

Q: What about the “Antioxidant Activity DPPH” value [3] of the same molecule?
A: 0.35 ± 0.01 ^cd nmol Trolox equivalent/mg extract

Q: And the “α-glucosidase inhibition (in words)” value (α-glucosidase)?
A: relatively weak inhibitory activity

Q: For `O=C(O)c1ccc(O)cc1` [Compound 10, p-Hydroxybenzoic acid], which IC50 [2] is on record?
A: 2220 µM

Q: What about the “Antioxidant Activity DPPH” value [3] of the same molecule?
A: 1.12 ± 0.23 ^h nmol Trolox equivalent/mg extract

Q: What about the “Antioxidant Activity FRAP” value [5] of the same molecule?
A: 0.87 ± 0.01 ^f nmol Trolox equivalent/mg extract

Q: And the “α-glucosidase inhibition (in words)” value (α-glucosidase)?
A: relatively weak inhibitory activity
